Entries after “also recorded” stand apart in the source; their conditions may differ. Like-named read-outs stand apart in the source and are kept apart here. Bridge positions count the residues as written; N and C are the ends. Peptide text beside a SMILES is read from it.

One series concerns the target KLK12 (Homo sapiens, UniProt Q9UKR0). In words: Protein proteolysis: fibrinogen digestion by KLK12. Particulars: up to a concentration of 2 μM. It is filed as biochemical.
A short description of series [1]: Stability of SFTI variants in contact with prostate cancer cells in vitro. Format: in vitro ADME. Particulars: for half-life at 1 μM: RPMI 1640 with 10% fetal calf serum, read-out: t1/2 of residual inhibitory activity (converted). How it is done: Cell monolayers of LNCaP, 22Rv1 and PC3 cells were established in RPMI 1640 medium containing 10% fetal calf serum. Each cell line was treated +/−1 μM SFTI-FCQR contained in 4.0 mL RPMI media (as above) with a vehicle control to account for inhibition by intrinsic media factors. 25 μL samples of media were taken at 0, 24, 48, 72, 96 and 120 hrs timepoints. Media samples were boiled at 97° C. for 15 min, centrifuged at 14,000 rpm for 5 min to remove cellular debris and precipitated protein. Residual SFTI-FCQR inhibitory activity in the medium was determined against recombinant KLK4 using FVQR-pNA as a peptide substrate as above using 15ng KLK4 and 30 nmol FVQR-pNA with 2.5 μL and […] of media+/−SFTI-FCQR added from each treatment.

The target in the next series is T1, bovine thrombin (Bos taurus, UniProt P00735).
T1 construct: purchased Sigma Chemicals
In words: Inhibitor kinetics: thrombin amidolytic activity. It is filed as biochemical. Particulars: substrate Bz-FVR-pNA (0.2 mM). How it is done: (§1) All enzymes and substrates were obtained from Sigma Chemicals if not otherwise specified. […] The release of pNa moiety was monitored as described above for 7 minutes with each point being the average of three independent triplicate reactions. IC50 was determined using the Prism 5 software suite (GraphPad software Inc.).

The target of another series is T2, human matriptase (Homo sapiens, UniProt Q9Y5Y6).
T2 construct: purchased R&D Systems
T2 sequence (Q9Y5Y6 615-855 limits assumed): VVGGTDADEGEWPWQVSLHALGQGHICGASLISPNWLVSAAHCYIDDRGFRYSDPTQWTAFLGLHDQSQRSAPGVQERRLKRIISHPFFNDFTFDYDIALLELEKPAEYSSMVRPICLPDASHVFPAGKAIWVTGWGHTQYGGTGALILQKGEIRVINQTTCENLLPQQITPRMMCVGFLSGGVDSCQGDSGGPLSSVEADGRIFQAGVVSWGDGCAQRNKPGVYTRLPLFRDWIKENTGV
Kind of series: Inhibitor kinetics: matriptase amidolytic activity. To be noted: substrate Bz-FVR-pNA (0.2 mM). It is filed as biochemical. How it is done: as §1

A further series concerns the target KLK4 (Homo sapiens, UniProt Q9Y5K2). In words: Inhibitor kinetics: KLK4 amidolytic activity with peptide-pNA substrates. It is filed as biochemical. Also noted: pro-region of PSA (KLK3), replacing the native KLK4 pro-region (N, cleaved yes); made in house. How it is done: Human recombinant KLK4 was expressed in E. coli using a previously described chimeric KLK4 plasmid construct where the native pro-region was replaced with the pro-region of PSA, enabling autoactivation. Protein was expressed as inclusion bodies which were isolated and solubilised as described previously to yield 90% pure KLK4. Protein refolding was performed by dilution into 100 volumes of refolding buffer I (2 M urea, 0.1M NaCl, 5 mM GSH, 0.5 mM GSSG, 10 mM benzamidine, 50 mM tris HCl pH 8.0, 2 mM CaCl2) over 44 hours before further dilution into 3 volumes refolding buffer II (refolding buffer I with 0.5 M urea 0.5 mM GSH, 0.05 mM GSSG, 2 mM CaCl2) over another 24 hours. Dialysis was performed as previously described (with additional 2 mM CaCl2 to reduce aggregation) before concentration using UNO sphere Q (Biorad) eluting with tris buffered saline (pH 7.5)/2 mM CaCl2. Subsequently, the material was purified to apparent homogeneity (according to coomassie blue stained SDS PAGE) by gel filtration using Sephacryl S-200 (GE Health Care) pre-equilibrated with 50 mM Tris-HCl pH 7.5, 20 mM NaCl and 2 mM CaCl2.
All enzymes and substrates were obtained from Sigma Chemicals if not otherwise specified. Bacterially expressed human KLK4 (37 ng), bovine β-trypsin (20 ng), bovine thrombin (20 ng), bovine α-chymotrypsin (0.5 μg), protease (0.5 μg; Streptomyces griseus type XIV), bovine plasminogen (0.5 μg), and human matriptase (30 ng; R&D Systems) were incubated with various concentrations of inhibitors in 200 μL assay buffer for 10 minutes prior to initiation by the addition of 100 μL of 0.3 mM of peptide-pNA substrates (FVQR-pNA: KLK4; BAPNA: trypsin, (Streptomyces griseus Type XIV Protease and bovine plasma plasminogen); Bz-Phe-Val-Arg-pNA: thrombin and matriptase; Trp-pNA: α-chymotrypsin; Leu-pNA: (Streptomyces griseus Type XIV Protease and bovine plasma plasminogen). The release of pNa moiety was monitored as described above for 7 minutes with each point being the average of three independent triplicate reactions. IC50 was determined using the Prism 5 software suite (GraphPad software Inc.).

In the next series the test system is iKLK4. In words: KLK4 stimulated calcium release in LMF stably expressing human PAR-2. It is filed as cell-based. How it is done: (§2) Lung murine fibroblasts (LMF) from Par-1 null mice stably expressing human PAR-2 were grown to 80% confluence as previously described, washed with PBS, detached nonenzymatically, resuspended (4×10^6 cells/ml) in extracellular medium (121 mM NaCl, 5.4 mM KCl, 0.8 mM MgCl2, 1.8 mM CaCl2, 5.5 mM glucose, 25 mM HEPES (pH 7.4)) containing 0.2% (w/v) bovine serum albumin (Sigma) and then loaded with the fluorescence indicator Fura-2 acetoxymethyl ester (1.0 μM; Invitrogen) at room temperature for 60 min. Cells were then pelleted followed by resuspension in extracellular medium (without bovine serum albumin) at a concentration of 2×10^6 cells/ml for fluorescence measurements. The ratio of fluorescence at 510 nm after excitation at 340 and 380 nm was monitored (Polarstar Optima fluorescent plate reader) during treatment with bovine β trypsin (Sigma Chemicals), PAR-2 activating peptide SLIGKV (AusPep) and iKLK4 with or without SFTI-FCQR.

The next series has as its system human PAR-2. In words: PAR-2 activating peptide stimulated calcium release in LMF stably expressing human PAR-2. Format: cell-based. How it is done: as §2
The next series has as its target KLK14 (Homo sapiens, UniProt Q9P0G3). In words: Protein proteolysis: fibrinogen digestion by KLK14. Format: biochemical. Particulars: up to a concentration of 2 μM.
For the next series, the target named is KLK5 (Homo sapiens, UniProt Q9Y337). Kind of series: Inhibitor kinetics: KLK5 amidolytic activity. To be noted: substrate Bz-PFR-pNA (0.2 mM). It is filed as biochemical.
Sequence of KLK5 (Q9Y337 23-293): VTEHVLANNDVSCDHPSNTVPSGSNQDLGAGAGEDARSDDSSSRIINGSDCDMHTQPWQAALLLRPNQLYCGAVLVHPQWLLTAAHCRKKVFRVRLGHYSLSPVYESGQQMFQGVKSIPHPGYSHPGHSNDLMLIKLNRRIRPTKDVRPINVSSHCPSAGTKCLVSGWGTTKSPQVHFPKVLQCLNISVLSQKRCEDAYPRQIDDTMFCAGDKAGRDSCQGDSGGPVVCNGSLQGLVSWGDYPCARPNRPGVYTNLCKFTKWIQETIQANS

Sequence of KLK4 (Q9Y5K2 31-254): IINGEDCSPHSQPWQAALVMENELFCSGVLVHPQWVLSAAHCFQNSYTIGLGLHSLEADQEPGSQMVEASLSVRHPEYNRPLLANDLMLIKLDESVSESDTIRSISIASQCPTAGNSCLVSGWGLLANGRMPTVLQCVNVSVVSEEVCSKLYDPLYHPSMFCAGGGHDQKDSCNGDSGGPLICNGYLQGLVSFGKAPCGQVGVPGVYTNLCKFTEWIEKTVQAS
Sequence of KLK14 (Q9P0G3 35-267 limits assumed): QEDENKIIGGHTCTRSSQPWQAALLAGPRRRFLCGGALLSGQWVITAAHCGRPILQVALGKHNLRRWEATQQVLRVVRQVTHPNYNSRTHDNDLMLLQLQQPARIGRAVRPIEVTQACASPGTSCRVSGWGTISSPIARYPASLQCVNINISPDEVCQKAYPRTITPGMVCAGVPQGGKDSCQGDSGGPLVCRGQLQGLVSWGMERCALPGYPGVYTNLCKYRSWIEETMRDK
Sequence of KLK12 (Q9UKR0 18-248): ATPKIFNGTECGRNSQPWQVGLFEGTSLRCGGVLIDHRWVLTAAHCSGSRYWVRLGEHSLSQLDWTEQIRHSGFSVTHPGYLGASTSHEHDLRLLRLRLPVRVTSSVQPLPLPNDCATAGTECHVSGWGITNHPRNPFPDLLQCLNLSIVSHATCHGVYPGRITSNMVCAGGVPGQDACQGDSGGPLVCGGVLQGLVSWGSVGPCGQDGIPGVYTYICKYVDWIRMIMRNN

In general, IC50 refers to the concentration at which inhibition is half-maximal. As a reminder, the Ki is the dissociation constant of the complex between target and ligand, obtained from inhibition or displacement. Read a high Ki as a looser hold on the target. With `CC[C@H](C)[C@@H]1NC(=O)[C@@H]2CCCN2C(=O)[C@@H]2CCCN2C(=O)[C@H]([C@@H](C)CC)NC(=O)[C@H](CO)NC(=O)[C@H](CCCNC(=N)N)NC(=O)[C@H](CCC(N)=O)NC(=O)[C@@H]2CSSC[C@H](NC1=O)C(=O)N[C@@H](Cc1ccccc1)C(=O)N1CCC[C@H]1C(=O)N[C@@H](CC(=O)O)C(=O)NCC(=O)N[C@@H](Cc1ccccc1)C(=O)N2` [SFTI-FCQR] (cyclo(GFCQRSIPPICFPD); disulfide 3-11), the “inhibition of KLK12 digestion of fibrinogen” value against KLK12 is “no inhibition”. The “residual inhibition of recombinant KLK4 by tissue culture supernatant” value in [1] (1:5 dilution of supernatant, after a week of contact with prostate cancer cells) is recorded as “complete inhibition”. The half-life at 1 μM was 117 h in [1] (22Rv1 cell monolayers, 1 μM incubated with 22RV1 cells); 119 h in [1] (LNCaP cell monolayers, 1 μM incubated with LNCaP cells); 89 h in series [1] (PC3 cell monolayers, 1 μM incubated with PC3 cells). Further, the IC50 entry was “did not inhibit” at bovine thrombin; above 10000 nM on bovine thrombin (read-out: IC50); “did not inhibit” on human matriptase; above 10000 nM at human matriptase (read-out: IC50); 7.97 ± 1.08 nM at KLK4; 2350 ± 721 nM against KLK5. The molecule further registered a Ki on KLK4 of 3.59 ± 1.08 nM. Further, the “effect on KLK4 stimulated calcium release” value in the series on iKLK4 (1 μM SFTI-FCQR, iKLK4 300 nM) was “extremely robust blockade of calcium release”. Besides, the “inhibition of KLK4 stimulated calcium flux” value in the series with iKLK4 (at a concentration of 1 mM (as printed in discussion)) is “complete inhibition”. Also, the “effect on calcium release by PAR-2 activating peptide” value in the series with human PAR-2 (1 μM SFTI-FCQR, PAR-2 activating peptide 100 nM) is given as “permissive for calcium release; also recorded: no effect”. Moreover, in the series on human PAR-2 (SFTI-FCQR 1 μM without agonist), the “effect on intracellular Ca^2+ of inhibitor alone” value was “no effect”. Further, the “inhibition of KLK14 digestion of fibrinogen” value against KLK14 is “no inhibition”.

Values taken from patent US20110172163A1, “Novel Protease Inhibitors” (QUEENSLAND UNIVERSITY OF TECHNOLOGY, priority 2008, published 2011).
